Where “and” joins values, the source holds several entries; their conditions need not be identical. Equal entries are not always repeated. Toxic doses and inconclusive results are not listed. No stated cut-off is given here; in the data, active means T/C of 150% or more; inactive means T/C below 125%.
Test system: L1210 leukemia ip in BDF1 mice, survival T/C
Assay: NCI In Vivo Anticancer Drug Screen. Data for tumor model L1210 Leukemia (intraperitoneal) in B6D2F1 (BDF1) mice
Conditions: endpoint: mean survival time, higher = longer survival
Summary of the method: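 Tumor cells were implanted, animals were treated, and survival was followed. The result divides the treated measurement by the vehicle-control measurement.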

[1] = dose: 12.5 mg/kg/injection, schedule: Q01DX009 (ip), vehicle: saline
[2] = dose: 25.0 mg/kg/injection, schedule: Q01DX009 (ip), vehicle: saline
[3] = dose: 100.0 mg/kg/injection, schedule: Q01DX001 (ip), vehicle: saline
[4] = dose: 100.0 mg/kg/injection, schedule: Q01DX009 (ip), vehicle: saline with Tween-80
[5] = dose: 200.0 mg/kg/injection, schedule: Q01DX009 (ip), vehicle: saline with Tween-80
[6] = dose: 400.0 mg/kg/injection, schedule: Q01DX009 (ip), vehicle: saline with Tween-80
[7] = dose: 100.0 mg/kg/injection, schedule: Q01DX009 (ip), vehicle: Klucel (hydroxypropylcellulose) (HPC)
[8] = dose: 200.0 mg/kg/injection, schedule: Q01DX009 (ip), vehicle: Klucel (hydroxypropylcellulose) (HPC)
[9] = dose: 400.0 mg/kg/injection, schedule: Q01DX009 (ip), vehicle: Klucel (hydroxypropylcellulose) (HPC)
[10] = dose: 50.0 mg/kg/injection, schedule: Q01DX009 (ip), vehicle: Klucel (hydroxypropylcellulose) (HPC)

Measured: T/C

COc1ccc(CC#N)cc1
inactive: dose: 2.5 mg/kg/injection, schedule: Q04DX002 (ip), vehicle: Klucel (hydroxypropylcellulose) (HPC) 103 % of control | dose: 5.0 mg/kg/injection, schedule: Q01DX009 (ip), vehicle: Klucel (hydroxypropylcellulose) (HPC) 91 % of control | dose: 5.0 mg/kg/injection, schedule: Q04DX002 (ip), vehicle: Klucel (hydroxypropylcellulose) (HPC) 98 % of control | dose: 10.0 mg/kg/injection, schedule: Q01DX009 (ip), vehicle: Klucel (hydroxypropylcellulose) (HPC) 89 % of control | dose: 10.0 mg/kg/injection, schedule: Q04DX002 (ip), vehicle: Klucel (hydroxypropylcellulose) (HPC) 98 % of control and 110 % of control | dose: 20.0 mg/kg/injection, schedule: Q01DX009 (ip), vehicle: Klucel (hydroxypropylcellulose) (HPC) 92 % of control

c1ccc2c(c1)C(=Nc1ccc3ccccc3c1)c1ccccc1-2
inactive: dose: 100.0 mg/kg/injection, schedule: Q04DX003 (ip), vehicle: saline with Tween-80 97 % of control | dose: 200.0 mg/kg/injection, schedule: Q04DX003 (ip), vehicle: saline with Tween-80 88 % of control | dose: 400.0 mg/kg/injection, schedule: Q04DX003 (ip), vehicle: saline with Tween-80 92 % of control

CCC[CH2][Sn]([CH2]CCC)([O]C(C)=O)[O]C(C)=O
inactive: dose: 3.0 mg/kg/injection, schedule: Q01DX009 (ip), vehicle: saline 106 % of control | dose: 6.12 mg/kg/injection, schedule: Q01DX009 (ip), vehicle: saline 101 % of control | [1] 108 % of control | [2] 89 % of control

CC1(C)N=C(N)N=C(N)N1c1cccc(CC(=O)Nc2ccccc2)c1
inactive: [1] 102 % of control | [2] 98 % of control | dose: 50.0 mg/kg/injection, schedule: Q01DX009 (ip), vehicle: saline 102 % of control | dose: 100.0 mg/kg/injection, schedule: Q01DX009 (ip), vehicle: saline 96 % of control | dose: 200.0 mg/kg/injection, schedule: Q01DX009 (ip), vehicle: saline 98 % of control

Cc1cccc(NC(=O)CCc2ccc(Cl)cc2)n1
inactive: [3] 95 % of control

c1ccc2c(c1)C[N+](=C1CCCCC1)C2
inactive: dose: 75.0 mg/kg/injection, schedule: Q01DX009 (ip), vehicle: saline 91 % of control | [3] 93 % of control | dose: 150.0 mg/kg/injection, schedule: Q01DX009 (ip), vehicle: saline 88 % of control | dose: 200.0 mg/kg/injection, schedule: Q01DX001 (ip), vehicle: saline 97 % of control | dose: 300.0 mg/kg/injection, schedule: Q01DX009 (ip), vehicle: saline 91 % of control | dose: 400.0 mg/kg/injection, schedule: Q01DX001 (ip), vehicle: saline 98 % of control

CC(=O)OCC1OC(N2C(=O)/C(=C/c3ccc(Br)s3)SC2=S)C(OC(C)=O)C(OC(C)=O)C1OC(C)=O (stereo unspecified)
inactive: dose: 25.0 mg/kg/injection, schedule: Q01DX005 (ip), vehicle: other 94 % of control | dose: 50.0 mg/kg/injection, schedule: Q01DX005 (ip), vehicle: other 94 % of control | dose: 100.0 mg/kg/injection, schedule: Q01DX005 (ip), vehicle: other 94 % of control

O=C(Nc1ccc(O)cc1)c1ccc(C(=O)Nc2ccc(O)cc2)cc1
inactive: dose: 15.0 mg/kg/injection, schedule: Q01DX Z (ip), vehicle: methylcellulose (MC) 112 % of control | dose: 30.0 mg/kg/injection, schedule: Q01DX Z (ip), vehicle: methylcellulose (MC) 93 % of control | dose: 60.0 mg/kg/injection, schedule: Q01DX Z (ip), vehicle: methylcellulose (MC) 98 % of control | dose: 120.0 mg/kg/injection, schedule: Q01DX Z (ip), vehicle: methylcellulose (MC) 98 % of control

c1ccc(CCc2ccccc2)cc1
inactive: [4] 91 % of control | dose: 100.0 mg/kg/injection, schedule: Q04DX002 (ip), vehicle: saline with Tween-80 95 % of control | [5] 91 % of control | dose: 200.0 mg/kg/injection, schedule: Q04DX002 (ip), vehicle: saline with Tween-80 98 % of control | [6] 94 % of control | dose: 400.0 mg/kg/injection, schedule: Q04DX002 (ip), vehicle: saline with Tween-80 98 % of control

COc1nn(C)c(=O)c2ncccc12
inactive: dose: 15.0 mg/kg/injection, schedule: Q01DX001 (ip), vehicle: carboxymethylcellulose (CMC) 93 % of control | dose: 30.0 mg/kg/injection, schedule: Q01DX001 (ip), vehicle: carboxymethylcellulose (CMC) 92 % of control

CCCCCC(C)NCCOC(=O)c1ccc(N)cc1 (stereo unspecified)
inactive: dose: 75.0 mg/kg/injection, schedule: Q01DX001 (ip), vehicle: other 98 % of control

CC(C)OC(=O)Nc1cccnc1
inactive: dose: 100.0 mg/kg/injection, schedule: Q04DX002 (ip), vehicle: Klucel (hydroxypropylcellulose) (HPC) 92 % of control | dose: 200.0 mg/kg/injection, schedule: Q04DX002 (ip), vehicle: Klucel (hydroxypropylcellulose) (HPC) 98 % of control | dose: 400.0 mg/kg/injection, schedule: Q04DX002 (ip), vehicle: Klucel (hydroxypropylcellulose) (HPC) 103 % of control

CCCCCNS(=O)(=O)CCCC
inactive: dose: 100.0 mg/kg/injection, schedule: Q04DX002 (ip), vehicle: other 111 % of control | dose: 200.0 mg/kg/injection, schedule: Q04DX002 (ip), vehicle: other 96 % of control | dose: 400.0 mg/kg/injection, schedule: Q04DX002 (ip), vehicle: other 103 % of control

CC(=O)C(C)(c1ccccc1)N(Cc1ccccc1)C(=O)c1ccccc1 (stereo unspecified)
inactive: dose: 100.0 mg/kg/injection, schedule: Q04DX003 (ip), vehicle: other 93 % of control | dose: 200.0 mg/kg/injection, schedule: Q04DX003 (ip), vehicle: other 108 % of control | dose: 400.0 mg/kg/injection, schedule: Q04DX003 (ip), vehicle: other 92 % of control

CCOC(=O)c1cc(Cl)cc(C(=O)OCC)n1
inactive: [4] 111 % of control | [5] 107 % of control | [6] 102 % of control

C(=Nc1ccccc1)c1ccccc1B1Oc2ccccc2O1
inactive: [7] 100 % of control | [8] 96 % of control | [9] 119 % of control

COc1ccc(OC)c(NC(=O)c2ccc(Cl)cc2Cl)c1
inactive: [7] 95 % of control | [8] 93 % of control | [9] 95 % of control

CCOC(=O)c1nnc(-c2ccc(C)cc2)[nH]c1=O
inactive: [10] 95 % of control | [7] 95 % of control | [8] 106 % of control

COc1cccc(OC)c1OC(=O)Nc1ccccc1F
inactive: [7] 105 % of control | [8] 106 % of control | [9] 106 % of control

CCC1=NNC(=O)C1(Br)Br
inactive: dose: 5.0 mg/kg/injection, schedule: Q01DX001 (ip), vehicle: saline 105 % of control | dose: 10.0 mg/kg/injection, schedule: Q01DX001 (ip), vehicle: saline 100 % of control | dose: 20.0 mg/kg/injection, schedule: Q01DX001 (ip), vehicle: saline 100 % of control | dose: 40.0 mg/kg/injection, schedule: Q01DX001 (ip), vehicle: saline 97 % of control | dose: 80.0 mg/kg/injection, schedule: Q01DX001 (ip), vehicle: saline 103 % of control

CN(C)c1ccc(/C=N/NC(=O)C(O)(c2ccccc2)c2ccccc2)cc1
inactive: [4] 98 % of control | [5] 98 % of control | [6] 88 % of control

NN=C1C(Cl)=C(Cl)C(Cl)=C1Cl
inactive: dose: 100.0 mg/kg/injection, schedule: Q04DX003 (ip), vehicle: Klucel (hydroxypropylcellulose) (HPC) 93 % of control | dose: 200.0 mg/kg/injection, schedule: Q04DX003 (ip), vehicle: Klucel (hydroxypropylcellulose) (HPC) 93 % of control | dose: 400.0 mg/kg/injection, schedule: Q04DX003 (ip), vehicle: Klucel (hydroxypropylcellulose) (HPC) 98 % of control

CS(=O)(=O)OCCN(CCOS(C)(=O)=O)c1ccc(C=Nc2ccc(-c3csc(-c4ccc(Br)cc4)n3)cc2)cc1
inactive: dose: 25.0 mg/kg/injection, schedule: Q01DX009 (ip), vehicle: Klucel (hydroxypropylcellulose) (HPC) 124 % of control | [10] 114 % of control

S=c1n(CN2CCCCC2)c2cncnc2n1CN1CCCCC1
inactive: dose: 75.0 mg/kg/injection, schedule: Q01DX Z (ip), vehicle: carboxymethylcellulose (CMC) 98 % of control | dose: 100.0 mg/kg/injection, schedule: Q01DX Z (ip), vehicle: carboxymethylcellulose (CMC) 109 % of control | dose: 125.0 mg/kg/injection, schedule: Q01DX Z (ip), vehicle: carboxymethylcellulose (CMC) 95 % of control
